# From US7314858B2, “Retrocyclins: antiviral and antimicrobial peptides” (priority 2001, dated 2008)
# Entries after “also recorded” stand apart in the source; their conditions may differ.
# How the values were obtained:
# HIV-1 strain IIIB [1] = experiment: HIV-1 IIIB infection of CD4+ PBMC, p24 antigen ELISA; format: cell-based; conditions: CD4+ PBMC, IIIB (X4), peptide 10-20 μg/ml
# Method: FIG. 5A-C. Anti-HIV-1 activity of retrocyclin. Two strains of HIV-1 and two types of human target cells were used. The IIIB strain is T-cell tropic (X4) and utilizes the CXCR4 co-receptor for entry; the JR-CSF strain is M-tropic (R5) and uses CCR5 for entry. PBMC signifies CD4^+-selected peripheral blood mononuclear cells. […] (A) Two concentrations of retrocyclin (2 μg/ml, 20 μg/ml), 20 μg/ml of the Rhesus circular defensin “RTD-1”, and 20 μg/ml of a horseshoe crab-derived peptide “T140”, reported to only prevent X4 infections, were tested in antiviral assays of against strain IIIB in H9 cells (n=2-6 per peptide; error bars indicate SEM). (B) To confirm our results with primary human cells, similar assays were performed utilizing IIIB virus and CD4^+ PBMC or (C) JR-CSF virus and CD4^+ PBMC. […] Average of duplicate experiments are reported for studies with PBMCs. Assay sensitivity=10 pg/ml.
# Either HIV-1-permissive H9 cells were used as targets, or primary CD4^+ lymphocytes from HIV-1-seronegative donors generated from freshly purified peripheral blood mononuclear cells (PBMC) stimulated with a CD3-CD8 bispecific monoclonal antibody. […] These cells were maintained in RPMI containing 10% FCS supplemented with 2 mM glutamine, 100 U of penicillin/ml, 10 μg of streptomycin/ml, and 50 U of interleukin 2/ml (R10-50 media).
# Examining the effect of adding retrocyclin at various times pre- and post-HIV-1 infection. […] Primary CD4^+ PBMC were incubated with HIV-IIIB (FIG. 6) or HIV-JR-CSF for 3 hours in the presence or absence of 20 μg/ml retrocyclin. The cells were subsequently washed in media, and incubated an additional 9 days. Retrocyclin (20 μg/ml) was added back to some of the cultures at time points specified in FIG. 6 and infection was monitored by p24 ELISA as previously described. […]
# HIV-1 strain JR-CSF = experiment: HIV-1 JR-CSF infection of CD4+ PBMC, p24 antigen ELISA; format: cell-based; conditions: JR-CSF (R5), peptide 10-20 μg/ml
# Method: FIG. 5A-C. Anti-HIV-1 activity of retrocyclin. Two strains of HIV-1 and two types of human target cells were used. The IIIB strain is T-cell tropic (X4) and utilizes the CXCR4 co-receptor for entry; the JR-CSF strain is M-tropic (R5) and uses CCR5 for entry. PBMC signifies CD4^+-selected peripheral blood mononuclear cells. […] (A) Two concentrations of retrocyclin (2 μg/ml, 20 μg/ml), 20 μg/ml of the Rhesus circular defensin “RTD-1”, and 20 μg/ml of a horseshoe crab-derived peptide “T140”, reported to only prevent X4 infections, were tested in antiviral assays of against strain IIIB in H9 cells (n=2-6 per peptide; error bars indicate SEM). (B) To confirm our results with primary human cells, similar assays were performed utilizing IIIB virus and CD4^+ PBMC or (C) JR-CSF virus and CD4^+ PBMC. Peptides were not cytotoxic at indicated concentrations, measured by trypan blue exclusion. Average of duplicate experiments are reported for studies with PBMCs. Assay sensitivity=10 pg/ml.
# (§1) Either HIV-1-permissive H9 cells were used as targets, or primary CD4^+ lymphocytes from HIV-1-seronegative donors generated from freshly purified peripheral blood mononuclear cells (PBMC) stimulated with a CD3-CD8 bispecific monoclonal antibody. After approximately 7 days, when 98% of these cells co-expressed CD3 and CD4, they were infected with HIV-1 with or without retrocyclin or other test peptide. These cells were maintained in RPMI containing 10% FCS supplemented with 2 mM glutamine, 100 U of penicillin/ml, 10 μg of streptomycin/ml, and 50 U of interleukin 2/ml (R10-50 media).
# The p24 assay results shown in FIG. 9 are on a logarithmic scale. A horizontal reference line that passes through 100 on the ordinate scale corresponds to […] of p24 antigen. Results from 3 experiments (each performed with PBMC from a different donor) are shown.
# primary HIV-1 isolates = conditions: previous assays; included as negative control
# Description: Viral isolates. Primary HIV-1 isolates were obtained from Institutional Review Board-approved Centers for Disease Control and Prevention (CDC) Studies or from the National Institutes of Health Research and Reference Reagent Program and World Health Organization collaborative network. Detailed characteristics of the CDC isolates, including subtype determination based on the envelope region, and co-receptor usage using GHOST cell lines have been described elsewhere. For viruses obtained from the NIH Research and Reference Reagent Program, the reported subtype and co-receptor data were used as supplied. Viral stocks were generated by infecting CD8-depleted normal human peripheral blood mononuclear cells. After filtration through 0.22-μm filters, aliquots of the stocks were stored at −70° C. until used.
# Reporter gene-based viral replication assay. JC53-BL cells, an HIV-1 reporter cell line derived from HeLa cells that expresses high levels of CD4 and the HIV co-receptors CXCR4 and CCR5, were a gift of Tranzyme Inc. (Birmingham, Ala.). The JC53-BL cells contain cassettes for luciferase and β-galactosidase, each driven by the HIV-1 LTR. HIV infection (tat production) can be detected either by measuring luciferase activity or by counting blue foci after staining the cells with “X-Gal” (5-Bromo-4-chloro-3-indolyl β-D-galactopyranoside), as described elsewhere in detail. The JC53-BL cells were maintained in Dulbecco's modified Eagle medium supplemented with 10% fetal calf serum. (HyClone, Logan, Utah), 2 mM glutamine (Gibco), 100 units per ml penicillin G and 100 μg/ml streptomycin (GIBCO™, Invitrogen Corp., San Diego, Calif.). Viral titers were determined by adding serial dilutions of the virus stocks, in triplicate, to wells containing 20,000 JC53-BL cells, after supplementing the above medium with 40 μg/ml DEAE (diethylaminoethyl)-dextran. After a 48 hour incubation at 37° C. in 5% CO2, the cells were fixed and stained for β galactosidase, and the blue foci were counted with a light microscope. Multiplicity of infection (MOI) values were taken from the infectious unit data.
# In vitro infections were carried out in the presence or absence of θ-defensin peptides. Briefly, JC53-BL cells were harvested from T-150 flasks approximately 18 hours prior to starting the assay with 0.1 mM EDTA in 0.017 M PBS, pH 7.4. The cells were washed and transferred to sterile white 96-well plates (Thermo Labsystems, Franklin, Mass.) at a density of 20,000 cells in 50 μl of medium. […] After this 3-hour preincubation with peptides, viruses were added in media containing 40 μg/ml DEAE-dextran. The final volume was 200 μl per well, and the multiplicity of infection (viruses/cell) ranged from 0.009 to 0.65. After the plates had incubated at 37° C. in 5% CO2 for 48 hours, luciferase activity was measured with the Steady-Glo Luciferase Assay System (Promega, Madison, Wis.), using the manufacturer's lysis protocol. Relative light intensity was measured with a Tecan luminometer running Magellan software (Tecan, Research Triangle Park, N.C.) and reported as relative light units (RLU). Each plate contained three sets of quadruplicate controls: media-only (background), virus-only (peptide-free), and recombinant luciferase. Samples were run in duplicate and the % inhibition was calculated from the mean values using the formula: % Inhibition=1−(average RLU peptide+virus wells/average RLU virus only wells)×100.
# Fifty-percent inhibitory concentration values (IC50) were calculated using the predicted exponential growth function in Microsoft Excel, which uses known x-y values to estimate a given x value (in this case concentration of peptide) that would correspond to a given y value (in this case IC50). Statistical comparisons were by paired t-tests, unless otherwise noted.
# HSV-2 = experiment: HSV inactivation microplate assay on ME-180 cells (MTT); format: cell-based; conditions: 2-50 μg/ml, 2 hrs with virus, 72 hrs culture
# Method: FIG. 14. Inactivation of HSV-1 and HSV-2 by retrocyclin and RC-101. Retrocyclin (left panel) and RC-101 (right panel) at the indicated concentrations were incubated with herpes simplex virus, type 1 (HSV-1) or HSV-2 for 2 hrs and then added to ME-180 cell monolayers. Cells were incubated at 37° C. for 72 hrs, and cytotoxicity was measured with an MTT kit.
# Some retrocyclins are slightly active against herpes simplex virus (HSV). To determine if the activity of retrocyclin against HIV-1 was specific or representative of a more global antiviral effect, it was tested its ability to prevent HSV infection in vitro. A quantitative microplate assay was used to screen retrocyclin and retrocyclin-congeners for their ability to inactivate HSV type 1 (HSV-1) and HSV-2. The assay utilized small amounts of peptide and simultaneously evaluated for peptide-induced cytotoxicity. In brief, final peptide concentrations of 2-50 μg/ml were incubated with virus stocks for 2 hrs and added directly to ME-180 human cervical carcinoma cells. Cultures were incubated at 37° C. for 72 hrs and cytotoxicity was measured using a 3-(4,5-dimethylthiazon-2-yl)-2,5-diphenyltetrazolium bromide (MTT) cell proliferation kit (Boehringer-Mannheim, Germany). Calculations to assess antiviral activity and compute “percent protection” are delineated in (90).
# HIV-1 strain IIIB [2] = experiment: HIV-1 IIIB infection of H9 cells, p24 antigen ELISA; format: cell-based; conditions: H9 cells, IIIB (X4), peptide 10-20 μg/ml
# Method: FIG. 1. Circular minidefensins reduce HIV-1 infection of H9 cells. HIV-I strain IIIB (MOI=10^−2) was incubated with 2.5×10^5 H9 cells in the presence or absence of 20 μg/ml RTD-1, RTD-2 or RTD-3. p24 antigen release was monitored by ELISA on days 3, 6, and 9. Assay sensitivity=10 pg/ml.
# Immortalized CD4^+ H9 cells, which are permissive for infection with this strain, were maintained in RPMI supplemented with 10% heat-inactivated fetal calf serum (FCS), 10 mM HEPES, 2 mM glutamine, 100 U of penicillin/ml, and 10 μg of streptomycin/ml (R10 media). Cells (2.5×10^5/100 μl) were incubated with virus (multiplicity of infection (MOI)=10^−2) in the presence or absence of 20 μg/ml RTD-1, RTD-2 or RTD-3 for 3 hrs at 37° C./5% CO2. The cells were washed in R10 media, seeded in 48-well tissue culture plates in 1 ml R10 media, and incubated at 37° C./5% CO2 for 9 days. Aliquots of cell supernatant were removed at the specified time points and analyzed by a sensitive ELISA (DuPont NEN) that quantitates p24 antigen of HIV-1. The three circular rhesus minidefensins were similarly active, inhibiting HIV-1 by 100-1000 fold by 9 days post-inoculation (note the logarithmic scale).
# as §1
# Mature retrocyclin was prepared by a three-step process.
Molecule,inhibition of HIV-1 replication (p24) (HIV-1 strain IIIB [1]),inhibition of HIV-1 replication (p24) (HIV-1 strain JR-CSF),anti-HIV activity (primary HIV-1 isolates),protection against HSV-2 (HSV-2),inhibition of HIV-1 replication (p24) (HIV-1 strain IIIB [2])
R4Y-Retrocyclin [RC-106],either inactive or only modestly active; also recorded: lack of efficacy,lack of efficacy,little or no anti-HIV activity,–,–
I15Y-Retrocyclin (cyclo(GICRCICGRGICRCYCGR); disulfide (positions not given here); ring closure inferred; not fully specified (bridges)) [RC-103],either inactive or only modestly active; also recorded: relatively ineffective,considerable ability to protect cells; also recorded: substantial activity,–,less antiviral than retrocyclin,–
"I6Y-Retrocyclin (cyclo(GICRCYCGRGICRCICGR); disulfide (positions not given here); ring closure inferred; not fully specified (bridges)) [RC-102, cyclic …]",either inactive or only modestly active; also recorded: relatively ineffective,considerable ability to protect cells; also recorded: substantial activity,–,less antiviral than retrocyclin,–
R13Y-Retrocyclin (cyclo(GICICICGRGICYCICGR); disulfide (positions not given here); ring closure inferred; not fully specified (bridges)) [RC-108],either inactive or only modestly active; also recorded: lack of efficacy,lack of efficacy,–,–,–
"RTD-2: rhesus circular minidefensin, homodimer of two identical nonapeptide elements (SEQ ID NO:17) (peptide, listed as Macaca mulatta, cyclic homodimer of two nonapeptides; SIGNAL (1)...(20)) MRTFALLTAMLLLVALHAQAEARQARADEAAAQQQPGADDQGMAHSFTRPENAALPLSESARGLRCLCRRGVCQLL",–,–,–,–,protective to a lesser extent than retrocyclin
"RTD-3: rhesus circular minidefensin, homodimer of two identical nonapeptide elements (SEQ ID NO:15) (peptide, listed as Macaca mulatta, cyclic homodimer of two nonapeptides; SIGNAL (1)...(20)) MRTFALLTAMLLLVALHAQAEARQARADEAAAQQQPGTDDQGMAHSFTWPENAALPLSESAKGLRCICTRGFCRLL",–,–,–,–,protective to a lesser extent than retrocyclin
